Counter-ions that a name gives are not always drawn. Like-named read-outs stand apart in the source and are kept apart here.
Key:
[1] = biological target: T1, full-length tau (T40; htau40 isoform) / truncated tau (12-kDa fragment) in 3T6 fibroblast cells (Homo sapiens, UniProt P10636); experiment: cellular tau aggregation inhibition assay (truncated 12-kDa tau / full-length T40 band ratio on immunoblots); type: cell-based; conditions: for activity at 2 µM / activity at 20 µM: single concentration test, vs untreated cells, ~1.0 negative, <0.5 positive inhibitor, read-out: Truncated tau/T40 ratio (n = 3); for activity at 20 µM: tested at 20 μM
T1 construct: fibroblast cells (3T6) express full-length tau; PHF-core tau fragment (12-kDa fragment); expressed in transfected cells; host or cells: 3T6 fibroblast cells
T1 sequence (P10636 1-441 isoform P10636-8): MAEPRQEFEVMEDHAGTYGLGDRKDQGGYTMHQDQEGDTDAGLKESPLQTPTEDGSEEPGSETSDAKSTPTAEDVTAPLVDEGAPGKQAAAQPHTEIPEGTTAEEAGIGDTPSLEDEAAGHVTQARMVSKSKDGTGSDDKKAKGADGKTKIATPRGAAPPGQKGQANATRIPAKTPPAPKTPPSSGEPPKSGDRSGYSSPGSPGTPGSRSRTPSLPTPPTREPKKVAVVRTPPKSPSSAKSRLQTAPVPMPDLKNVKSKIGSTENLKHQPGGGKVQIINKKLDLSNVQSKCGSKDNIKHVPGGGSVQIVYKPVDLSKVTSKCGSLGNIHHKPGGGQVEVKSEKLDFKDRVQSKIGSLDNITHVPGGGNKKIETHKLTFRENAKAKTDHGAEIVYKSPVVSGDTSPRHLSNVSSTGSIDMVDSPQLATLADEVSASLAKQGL
Experimental: A cell-based tau aggregation assay was performed as described previously. The process is described in more detail in WO 02/055720. In essence, fibroblast cells (3T6) express full-length tau (“T40”; the htau40 isoform) under control of an inducible promotor, and low constitutive levels of the PHF-core tau fragment (12-kDa fragment). When T40 expression is induced, it undergoes aggregation-dependent truncation within the cell, N-terminally at approximately amino acid residue 295 and C-terminally at approximately residue 390, thereby producing higher levels of the 12-kDa PHF-core domain fragment. Production of the 12-kDa fragment can be blocked in a dose-dependent manner by tau-aggregation inhibitors. Indeed, the quantitation of inhibitory activity of compounds with respect to proteolytic generation of the 12-kDa fragment within cells can be described entirely in terms of the same parameters which describe inhibition of tau-tau binding in vitro. That is, the extent of proteolytic generation of the 12-kDa fragment within cells is determined entirely by the extent to tau-tau binding through the repeat domain.
[…] MTC was included as a reference tau aggregation inhibitor. For single concentration tests. The ratio of the quantity of both of the protein bands at different concentrations of TAI is measured, to correct for the level of expression of full-length tau and for cell density, particularly at high concentration of TAIs.
The inhibitory ratio (IR) is calculated by the equation:
Where IR^x=inhibitory ratio for compound at x mM; S=signal on immunoblot (mean) for truncated tau (trunc. tau) or full-length tau (full tau) bands for compound at 0 or x mM. A ratio of 1.0 indicates no effect, whereas values decreasing from 1.0 indicate increasing inhibitory action. A curve is generated for different concentrations and the EC50 value for the TAI is defined as the concentration at which the ratio of truncated tau: full-length tau is 50% of that ratio measured in the absence of TAI; this is determined graphically.
The concentration at which there is 50% inhibition of the 12-kDa band relative to T40 (referred to as the EC50 value) was calculated from a graph of the protein band ratios relative to those observed in untreated cells.

[2] = toxicity in cells (lactate dehydrogenase assay, 24 hrs); type: cell-based; conditions: mouse, 3t6 fibroblasts; concentration at which 50% of cells are killed; 24 hrs exposure; read-out: LD50
Experimental: Toxicity of the compounds described herein was assessed using the fibroblast cells used in the cell-based assay described above to assess EC50. Toxicity was measured by cell numbers after 24 hrs exposure to the compound using a lactate dehydrogenase assay kit TOX-7 (Sigma Biosciences) according to the manufacturer's instructions after lysis of remaining cells. Alternatively, a kit from Promega UK (CytoTox 96) was used, again according to the manufacturer's instructions. LD50 is determined as the concentration of compound at which 50% of cells are killed.

[3] = biological target: T2, truncated tau (residues 297-390; dGA) / dGAE (residues 297-391), tau-tau binding (Homo sapiens, UniProt P10636); experiment: in vitro cell-free tau-tau binding assay (B50); conditions: concentration required to inhibit tau-tau binding by 50%
T2 construct: truncated tau (residues 297-390; dGA); another truncated tau species (residues 297-391; dGAE)
T2 sequence (P10636 614-708): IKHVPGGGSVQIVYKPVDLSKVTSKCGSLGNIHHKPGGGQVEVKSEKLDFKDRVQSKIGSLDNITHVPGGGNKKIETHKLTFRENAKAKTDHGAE
Source text: This is described in detail in WO 96/30766 and in [25]. Briefly, a fragment of tau corresponding to the core repeat domain, which has been adsorbed to a solid-phase substrate, is able to capture soluble, full-length tau and bind tau with high affinity. This association confers stability against proteolytic digestion of the aggregated tau molecules. The process is self-propagating and can be blocked selectively by prototype pharmaceutical agents.
More specifically, truncated tau (residues 297-390; dGA) diluted in carbonate buffer (pH 9.6) was bound to the assay plate, and another truncated tau species (residues 297-391; dGAE) was added in the aqueous phase. The aqueous phase binding buffer contained 0.05% Tween-20 and 1% gelatine in phosphate-buffered saline (pH 7.4). Bound dGAE was detected using mAb 423 that recognises a Glu-391 dependent epitope that is absent from the solid-phase dGA.
The concentration of compound required to inhibit the tau-tau binding by 50% is referred to as the B50 value.

dGAE = biological target: T3, dGAE (Homo sapiens, UniProt P10636); experiment: solution-phase sandwich ELISA of dGAE assembly (scAb epitope occlusion); type: biochemical; conditions: 100 μM dGAE, 500 μM inhibitor, 24 h assembly
T3 construct: HMT or Compound 9 added
T3 sequence (P10636 614-708): as above
Experimental: Recombinant dGAE was produced in a bacterial expression system and assembled in the presence of 10 mM DTT by incubation at 37° C. with agitation for 24 h, as described previously. For testing the pharmacological activity, assembly reactions were performed with 100 μM dGAE and 500 μM tau aggregation inhibitor (Compound 9 or HMT) in Protein Lobind tubes (Eppendorf). Compound 9 was dissolved in DMSO (final 0.5%) and HMT in 10 mM phosphate buffer (PB) supplemented with 10 mM DTT. Control tubes with dGAE+DTT in PB and dGAE+DTT in 0.5% DMSO were also set up to allow for comparison of the extent of aggregation. Following a 24 h assembly reaction, the contents from each tube were mixed by pipetting and samples removed for the immunodetection of exposed epitopes using a solution-phase sandwich ELISA.
Ninety-six well Nunc Maxisorp plates were pre-coated with mAb 423 (10 μg/ml), which specifically recognises tau that is C-terminally truncated at Glu391 in the Pronase-resistant PHF core, washed three times with PBS containing 0.1% Tween 20 (PBST) and then blocked with 2% dried milk (Marvel) in PBS. Doubling dilutions of dGAE assembly samples were added from starting concentrations of 10 μg/ml in PBS and incubated for 1 h at 37° C. Bound tau was then detected using scAbs (10 μg/ml) and incubated for 1 h at 37° C. Anti-human C kappa HRP-conjugated secondary antibody was diluted 1:1,000 in 2% dried milk in PBS and incubated for 1 h at 37° C. Pierce 1-Step Ultra TMB-ELISA Substrate Solution was used to develop the reaction which was subsequently stopped with the addition of 1 M H2SO4. Absorbance was measured at 450 nm.

[4] = both AD and frontotemporal dementia; cited from earlier work
[5] = full assay, concentration at which truncated tau:full-length tau ratio is 50% of that without TAI, mean for replicates, NE = no effect, read-out: EC50

Structure (SMILES)	activity at 2 µM ([1]; >2.0 aggregation enhanced) [%]	CC50 at 24 h [2] [µM]	also measured
CS(=O)(=O)Nc1nc(C(=O)NCc2ccc[nH]2)cs1 [Compound 1]	501 ± 40.4	247 ± 16	
Cn1cccc1CNC(=O)c1csc(NS(C)(=O)=O)n1 [Compound 2]	86.4 ± 5.9	253 ± 40	
CS(=O)(=O)Nc1nc(C(=O)NCc2cc3ccccc3[nH]2)cs1 [Compound 3]	228 ± 44.9	212 ± 14	
CS(=O)(=O)Nc1nc(C(=O)NCc2nc3cc(Cl)ccc3[nH]2)cs1 [Compound 4]	480 ± 114	264 ± 27	
CS(=O)(=O)Nc1nc(C(=O)NCc2cc(-c3ccccc3)[nH]n2)cs1 [Compound 5]	72.7 ± 11.3	252 ± 23	
CC(C)(C)CCNC(=O)c1csc(NS(C)(=O)=O)n1 [Compound 6]	88.8 ± 5.7	217 ± 2.7	
CN(c1nc(C(=O)NCc2ccc[nH]2)cs1)S(C)(=O)=O [Compound 7]	44.4 ± 20.8	216 ± 46	
CN(c1nc(C(=O)NCc2cccn2C)cs1)S(C)(=O)=O [Compound 8]	7.8 ± 1.4	204 ± 39	
CN(c1nc(C(=O)NCc2cc(-c3ccccc3)[nH]n2)cs1)S(C)(=O)=O [Compound 9]		80.1 ± 45	EC50 [1, 5]: 4.82 µM; activity in cell-based aggregation assay (in words) ([1]; qualitative statement): lower potency; activity at 2 µM ([1]; tested at 2 μM): 26.6 ± 6.1%; EC50 ([1]; single experiment, FIG. 2, read-out: EC50 (50% inhibition of the lower 12-kDa band)): 3.65 µM; IC50 [3]: > 500 µM; assembly-dependent occlusion of epitopes (dGAE; CA4, CE2, 1G2 and 1D12 epitopes): Epitope exposure was less complete; 1G2 epitope availability / immunoreactivity (dGAE; scAb 1G2): comparable to HMT; exposure of the CA4 and 1D12 epitopes (dGAE; scAbs CA4 and 1D12): only partial exposure
CN(c1nc(C(=O)NCCC(C)(C)C)cs1)S(C)(=O)=O [Compound 10]	49.6 ± 9.6	191 ± 26	EC50 [1, 5]: 29 µM
Cn1cccc1CNC(=O)c1csc(NS(=O)(=O)CCO)n1 [Compound 11]	91.7 ± 18.8	222 ± 35	
O=C(NCc1nc2cc(Cl)ccc2[nH]1)c1csc(NS(=O)(=O)CCO)n1 [Compound 12]		197 ± 11.9	activity at 20 µM [1]: 101 ± 8.8%
O=C(NCc1cc(-c2ccccc2)[nH]n1)c1csc(NS(=O)(=O)CCO)n1 [Compound 13]		197 ± 8.1	activity at 20 µM [1]: 112 ± 16.2%
CC(C)(C)CCNC(=O)c1csc(NS(=O)(=O)CCO)n1 [Compound 14]		263 ± 39	EC50 [1, 5]: 3.7 µM; activity at 2 µM ([1]; tested at 2 μM): 38.1 ± 14.6%
O=C(NCc1ccc[nH]1)c1csc(NS(=O)(=O)CF)n1 [Compound 15]	120 ± 25.7	221 ± 35	
Cn1cccc1CNC(=O)c1csc(NS(=O)(=O)CF)n1 [Compound 16]		236 ± 25	activity at 20 µM [1]: 62.8 ± 5.1%
O=C(NCc1cc2ccccc2[nH]1)c1csc(NS(=O)(=O)CF)n1 [Compound 17]		228 ± 40	activity at 2 µM ([1]; tested at 2 μM): 53.2 ± 15%
O=C(NCc1nc2ccc(Cl)cc2[nH]1)c1csc(NS(=O)(=O)CF)n1 [Compound 18]	14.1 ± 3.9	225 ± 38	
O=C(NCc1cc(-c2ccccc2)[nH]n1)c1csc(NS(=O)(=O)CF)n1 [Compound 19]	197 ± 94.6	231 ± 38	
CC(C)(C)CCNC(=O)c1csc(NS(=O)(=O)CF)n1 [Compound 20]	80.3 ± 42.4	186 ± 13	
CNS(=O)(=O)Nc1nc(C(=O)NCc2cc3ccccc3[nH]2)cs1 [Compound 21]	217 ± 85.6	227 ± 30	
CNS(=O)(=O)Nc1nc(C(=O)NCc2nc3cc(Cl)ccc3[nH]2)cs1 [Compound 22]	136 ± 59.1	228 ± 36	
CNS(=O)(=O)Nc1nc(C(=O)NCc2cc(-c3ccccc3)[nH]n2)cs1 [Compound 23]	98.5 ± 10.1	226 ± 40	
CNS(=O)(=O)Nc1nc(C(=O)NCCC(C)(C)C)cs1 [Compound 24]	349 ± 106	235 ± 44	
O=C(NCc1nc2cc(Cl)ccc2[nH]1)c1csc(NS(=O)(=O)c2c[nH]c3ccccc23)n1 [Compound 25]		202 ± 9.3	activity at 20 µM [1]: 91.1 ± 10%; IC50 [3]: 612 µM
O=C(NCc1cc(-c2ccccc2)[nH]n1)c1csc(NS(=O)(=O)c2c[nH]c3ccccc23)n1 [Compound 26]		188 ± 11	activity at 20 µM [1]: 132 ± 8.4%; IC50 [3]: 616 µM
CN(C)c1ccc2c(c1)Sc1cc(N(C)C)ccc1N2 [HMTM, Hydromethylthionine mesylate]			pharmacological activity on clinical decline and brain atrophy [4]: exposure-dependent pharmacological activity on clinical decline and brain atrophy
CN(C)c1ccc2nc3ccc(N(C)C)cc3[s+]c2c1.[Cl-] [MT, reference compound]			tau aggregation level, % of that measured in its absence ([1]; MT at 1 μM): 9.6%
